Measured values published in patent US11873298B2, “Compounds and uses thereof” (JANSSEN PHARMACEUTICA NV, priority 2017, dated 2024).

How the values were obtained:
SCD1 = target: T1, SCD1 (Homo sapiens, UniProt O00767); assay: Growth inhibition of humanized yeast strain expressing SCD1 as sole desaturase; assay type: cell-based
T1 construct: host or cells: S. cerevisiae ole1Δ strain (W303 pdr1Δ pdr3Δ background), plasmid pRS316 with TDH3 promoter and CYC1 terminator
T1 sequence (O00767 1-359): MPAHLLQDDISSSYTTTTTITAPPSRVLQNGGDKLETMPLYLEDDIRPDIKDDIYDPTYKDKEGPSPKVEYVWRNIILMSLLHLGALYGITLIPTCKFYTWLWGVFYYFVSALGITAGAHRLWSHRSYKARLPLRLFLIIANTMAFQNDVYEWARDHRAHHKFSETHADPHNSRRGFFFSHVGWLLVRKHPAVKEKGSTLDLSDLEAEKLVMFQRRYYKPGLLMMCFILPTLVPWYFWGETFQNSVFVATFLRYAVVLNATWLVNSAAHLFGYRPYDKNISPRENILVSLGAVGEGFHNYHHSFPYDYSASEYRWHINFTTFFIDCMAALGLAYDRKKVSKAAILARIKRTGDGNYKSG
Summary of the method: (§1)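 Plasmid-complemented ole1Δ yeast, drug-pump deleted (pdr1Δ pdr3Δ), depend solely on the introduced Ole1, SCD1 or SCD5 desaturase. Compounds are added from DMSO to cells in uracil-free galactose medium, 2× density 0.02, and OD600 is read after 24 h or 40 h respectively.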

SCD5 = target: T2, SCD5 (Homo sapiens, UniProt Q86SK9); assay: Growth inhibition of humanized yeast strain expressing SCD5 as sole desaturase; assay type: cell-based
T2 construct: host or cells: S. cerevisiae ole1Δ strain (W303 pdr1Δ pdr3Δ background), plasmid pRS316 with TDH3 promoter and CYC1 terminator
T2 sequence (Q86SK9 1-330): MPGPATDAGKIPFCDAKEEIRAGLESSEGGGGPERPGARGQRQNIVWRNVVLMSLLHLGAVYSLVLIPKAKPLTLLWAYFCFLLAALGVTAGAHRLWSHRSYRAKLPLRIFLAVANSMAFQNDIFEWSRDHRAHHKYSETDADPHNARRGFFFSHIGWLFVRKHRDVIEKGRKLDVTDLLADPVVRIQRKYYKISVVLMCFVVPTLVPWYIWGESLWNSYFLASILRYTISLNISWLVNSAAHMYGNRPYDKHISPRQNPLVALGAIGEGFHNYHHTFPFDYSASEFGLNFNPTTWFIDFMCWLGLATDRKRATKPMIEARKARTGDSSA
Summary of the method: as §1

[1] = growth inhibition of humanized yeast strain expressing human SCD1
[2] = growth inhibition of humanized yeast strain expressing human SCD5
[3] = humanized yeast strain expressing SCD1
[4] = humanized yeast strain expressing SCD5

Row | Compound | IC50 (SCD1; humanized yeast strain, 40 h) | IC50 (SCD5; humanized yeast strain, 40 h) | further results
1 | CC(C)(C)OC(=O)N1CCC(c2noc(-c3cc(Br)c4cnn(C5COC5)c4c3)n2)CC1 [Compound 1041] | > 45 µM | 0.01 µM | –
2 | CCC(=O)N1CCC(c2noc(-c3ccc(F)c(N4CCOCC4)c3)n2)CC1 [Compound 1164] | > 45 µM | 0.54 µM | –
3 | CC(C)(C)OC(=O)N1C[C@@H]2[C@H](C1)[C@H]2C(=O)NCc1ccc(Cl)cc1 [Compound 773] | > 45 µM | 21.5 µM | –
4 | COC(=O)N1CCC(c2nc(-c3ccnc(Cl)c3)no2)CC1 [Compound 734] | – | – | IC50 (SCD1; [1]): > 45 µM; IC50 (SCD5; [2]): > 45 µM
5 | CC(C)(C)OC(=O)N1CCC(c2noc(-c3ccc(=O)n(C4COC4)c3)n2)CC1 [Compound 1113] | > 45 µM | 0.494 µM | –
6 | CC(C)(C)CC(=O)N1CCC(c2nc(-c3ccc4cnn(C5CCOC5)c4c3)no2)CC1 (centres unmarked) [Compound 775] | > 45 µM | 0.022 µM | –
7 | CC(C)(C)OC(=O)N1CCN(c2nc(-c3ccc4cn(C5CCC5)nc4c3)no2)CC1 [Compound 729] | – | – | IC50 (SCD1; [1]): > 45 µM; IC50 (SCD5; [2]): > 45 µM
8 | CC(C)n1ncc2ccc(-c3noc(N4CCC(C5COC5)CC4)n3)cc21 [Compound 743] | – | – | IC50 (SCD1; [1]): > 45 µM; IC50 (SCD5; [2]): 14.8 µM
9 | CCOC(=O)N1CCC(c2nc(-c3ccc4cnn(C(C)C)c4c3)no2)CC1 [Compound 361] | – | – | SCD1 % Max Inhibition (SCD1; [3]): 67.22%; IC50 (SCD5; [4]): > 45 µM; SCD5 % Max Inhibition (SCD5; [4]): 0.95%
10 | CC(C)(C)OC(=O)N1CCN(c2noc(-c3ccnc(NC4COC4)c3)n2)CC1 [Compound 818] | > 45 µM | 0.56 µM | –
11 | CC(C)n1ncc2ccc(-c3noc(C4(F)CCN(C(=O)CC5(C)CC5)CC4)n3)cc21 [Compound 623] | – | – | IC50 (SCD1; [1]): > 45 µM; IC50 (SCD5; [2]): 0.854 µM
12 | CC(C)(C)OC(=O)N1CCC(c2nc(-c3ccc4cnn([C@H]5C[C@H](OC(=O)c6ccc([N+](=O)[O-])cc6)C5)c4c3)no2)CC1 [Compound 847] | > 45 µM | > 45 µM | –
13 | CN1CC2CN(c3nc(-c4ccc5cn(C6COC6)nc5c4)no3)CCN2C1=O (centres unmarked) [Compound 1143] | > 45 µM | > 45 µM | –
14 | O=C(C1CCC1)N1CCC(c2noc(-c3ccnc(C4CCOC4)c3)n2)CC1 (centres unmarked) [Compound 1180] | > 45 µM | 0.06 µM | –
15 | CC1(C)CC1C(=O)N1CCC(c2noc(-c3ccc4cnn(C5COC5)c4c3)n2)CC1 (centres unmarked) [Compound 848] | > 45 µM | 0.01 µM | –
16 | CC(C)(C)OC(=O)N1CCC(c2cc(-c3cc4c(cn3)cnn4C3COC3)no2)CC1 [Compound 1144] | 1.78 µM | 0.01 µM | –
17 | CC(C)n1ncc2ccc(N3CC4(CCN(C(=O)OC(C)(C)C)CC4)OC3=O)cc21 [Compound 515] | – | – | IC50 (SCD1; [3]): 16.5 µM; IC50 (SCD5; [4]): > 45 µM
18 | CC1(OC(=O)N2CCN(c3nc(-c4ccc5cnn(C6COC6)c5c4)no3)CC2)CC1 [Compound 620] | – | – | IC50 (SCD1; [1]): > 45 µM; IC50 (SCD5; [2]): 0.013 µM
19 | Cn1ncc2ccc(-c3noc(C4CCNCC4)n3)cc21 [Compound 500] | – | – | IC50 (SCD1; [3]): > 45 µM; IC50 (SCD5; [4]): > 45 µM
20 | CC(C)(C)OC(=O)N1CCC(c2nc(-c3ccc4cnn(C5CC(=O)C5)c4c3)no2)CC1 [Compound 787] | 31.5 µM | 0.108 µM | –
21 | COC(=O)N1CCC(c2nnc(-c3ccc4cnn(C5COC5)c4c3)o2)CC1 [Compound 871] | > 45 µM | 9.54 µM | –
22 | CCC(=O)N1CCC(c2noc(-c3ccc4c(C)nn(C)c4c3)n2)CC1 [Compound 939] | > 45 µM | 10.9 µM | –
23 | C[C@H]1CN(c2noc(-c3ccc4cnn(C5COC5)c4c3)n2)CCN1C(=O)OC(C)(C)C [Compound 956] | > 45 µM | 2.46 µM | –
24 | CC(C)(C)OC(=O)N1CCC(c2noc(-c3cncc(N4CCC(F)(F)C4)c3)n2)CC1 [Compound 1181] | > 45 µM | 0.47 µM | –

Row | Compound | IC50 (SCD1; humanized yeast strain, 40 h) | IC50 (SCD5; humanized yeast strain, 40 h) | further results
25 | O=C(c1ccccc1Cl)N1CCC(c2noc(-c3ccc4cnn(C5COC5)c4c3)n2)CC1 [Compound 697] | – | – | IC50 (SCD1; [1]): > 45 µM; IC50 (SCD5; [2]): 0.059 µM
26 | O=C(C1CCC1)N1CCC(c2noc(-c3cc(F)c4cnn(C5COC5)c4c3)n2)CC1 [Compound 1061] | > 45 µM | 0.01 µM | –
27 | CC(C)n1ncc2ccc(-c3noc(N4CCN(C(=O)OC5CC5)CC4)n3)cc21 [Compound 689] | – | – | IC50 (SCD1; [1]): > 45 µM; IC50 (SCD5; [2]): 0.657 µM
28 | CC(C)(C)OC(=O)N1CCCC(c2noc(-c3ccc4cnn(C5COC5)c4c3)n2)CC1 (centres unmarked) [Compound 850] | > 45 µM | 0.01 µM | –
29 | CC(C)n1ncc2ccc(-c3noc(C4CCN(C(=O)CC5CC5(F)F)CC4)n3)cc21 (centres unmarked) [Compound 870] | > 45 µM | 4.26 µM | –
30 | CC1(C(=O)N2CCN(c3nc(-c4ccc5cnn(C6COC6)c5c4)no3)CC2)CCOC1 (centres unmarked) [Compound 924] | > 45 µM | 4.09 µM | –
31 | CC(C)N1C(=O)Cc2ccc(-c3noc(C4CCN(C(=O)c5ccccc5Cl)CC4)n3)cc21 [Compound 612] | – | – | IC50 (SCD1; [1]): > 45 µM; IC50 (SCD5; [2]): 2.38 µM
32 | COC(=O)N1CCC(c2noc(-c3ccc4cnn([C@H]5C[C@@H](O)C5)c4c3)n2)CC1 [Compound 945] | > 45 µM | 5.29 µM | –
33 | Cc1nn(C)c2cc(-c3nc(C4CCN(C(=O)OC5CCC5)CC4)no3)ccc12 [Compound 923] | > 45 µM | > 45 µM | –
34 | CC(C)(C)OC(=O)N1CC=C(c2ccc(-c3ccc4cnn(C5COC5)c4c3)cn2)CC1 [Compound 955] | > 45 µM | > 45 µM | –
35 | CC(C)(C)OC(=O)N1CC(c2noc(-c3ccc4cnn(C5COC5)c4c3)n2)C1 [Compound 926] | > 45 µM | > 45 µM | –
36 | CN(c1cc(-c2nc(C3CCN(C(=O)OC4(C)CC4)CC3)no2)ccn1)C1COC1 [Compound 1158] | > 45 µM | 3.5 µM | –
37 | CC(C)(C)OC(=O)N1CCC(c2noc(-c3ccc4oc(=O)n(C5COC5)c4c3)n2)CC1 [Compound 1005] | > 45 µM | 0.01 µM | –
38 | CC(C)n1ncc2ccc(-c3noc(N4CCn5ccnc5C4)n3)cc21 [Compound 804] | > 45 µM | > 45 µM | –
39 | CC(C)n1ncc2ccc(-c3noc(C4CCN(C(=O)N5CCCC5C#N)CC4)n3)cc21 (centres unmarked) [Compound 666] | – | – | IC50 (SCD1; [1]): > 45 µM; IC50 (SCD5; [2]): > 45 µM
40 | CC(C)C(=O)N1CCC(c2noc(-c3ccnc(C4CCOC4)c3)n2)CC1 (centres unmarked) [Compound 1090] | > 45 µM | 0.54 µM | –
41 | CC(C)(C)CC(=O)N1CCC(c2nc(-c3ccc4cn(C(=O)C5CC5)nc4c3)no2)CC1 [Compound 674] | – | – | IC50 (SCD1; [1]): > 45 µM; IC50 (SCD5; [2]): > 45 µM
42 | CC(C)n1ncc2ccc(-c3noc(C4CCN(C(=O)CNC(=O)c5cccc(F)c5)CC4(F)F)n3)cc21 (centres unmarked) [Compound 551] | – | – | IC50 (SCD1; [3]): > 45 µM; IC50 (SCD5; [4]): > 45 µM
43 | COC(=O)N1CCC(c2noc(-c3ccc4cnn(C5COC(C)(C)C5)c4c3)n2)CC1 (centres unmarked) [Compound 1094] | > 45 µM | 17.4 µM | –
44 | CC(C)n1ncc2ccc(-c3noc(N4C[C@H]5CN(C(=O)C(C)(C)C)C[C@H]5C4)n3)cc21 [Compound 764] | > 45 µM | 16.7 µM | –
45 | CC(C)(C)OC(=O)N1CCC(c2cc(-c3cnc4cnn(C5CCOC5)c4c3)on2)CC1 (centres unmarked) [Compound 1233] | – | – | IC50 (SCD1; yeast strain expressing human SCD1 as sole desaturase, Table 8): 24.7 µM; IC50 (SCD5; yeast strain expressing human SCD5 as sole desaturase, Table 8): 6.54 µM
46 | CC(C)n1ncc2ccc(-c3noc(N4CCC(C(CO)CCl)CC4)n3)cc21 (centres unmarked) [Compound 765] | 32.9 µM | 19.3 µM | –
47 | CCC(=O)N1CCC(c2noc(-c3ccc4cnn([C@@H]5CCOC5)c4c3)n2)CC1 [Compound 1050] | > 45 µM | 0.02 µM | –
